# From PubChem BioAssay (NCI)
#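 Method: 48-hour compound exposure of cells in 96-well plates, five concentrations, linear interpolation of endpoints. GI50 is the concentration that inhibits growth by half. At the TGI there is no net growth.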
# Legend:
# Test in all cases: inhibition of tumour cell growth, NCI panel, 48 h
# [1] = tested on: ACHN renal
# [2] = tested on: DU-145 prostate
# [3] = tested on: MDA-MB-231 breast
# [4] = tested on: MDA-MB-435
# [5] = tested on: OVCAR-5 ovarian
# [6] = tested on: PC-3 prostate
# [7] = tested on: RPMI-8226 leukemia
# [8] = tested on: SF-539 CNS
# [9] = tested on: SK-MEL-28 melanoma
# [10] = tested on: SK-OV-3 ovarian
# [11] = tested on: SNB-75 CNS
# [12] = tested on: SR leukemia
# [13] = tested on: TK-10 renal
# [14] = tested on: UACC-257 melanoma
# [15] = tested on: 786-0 renal
# [16] = tested on: A498 renal
# [17] = tested on: A549 NSCLC
# [18] = tested on: BT-549 breast
# [19] = tested on: CAKI-1 renal
# [20] = tested on: CCRF-CEM leukemia
# [21] = tested on: COLO 205 colon
# [22] = tested on: EKVX NSCLC
# [23] = tested on: HCC-2998 colon
# [24] = tested on: HCT-116 colon
# [25] = tested on: HCT-15 colon
# [26] = tested on: HL-60(TB) leukemia
# [27] = tested on: HOP-62 NSCLC
# [28] = tested on: HOP-92 NSCLC
# [29] = tested on: HT29 colon
# [30] = tested on: IGROV1 ovarian
# [31] = tested on: K-562 leukemia
# [32] = tested on: KM12 colon
# [33] = tested on: LOX IMVI melanoma
# [34] = tested on: M14 melanoma
# [35] = tested on: MALME-3M melanoma
# [36] = tested on: MCF7 breast
# [37] = tested on: MOLT-4 leukemia
# [38] = tested on: NCI-H226 lung
# [39] = tested on: NCI-H23 lung
# [40] = tested on: NCI-H460 lung
# [41] = tested on: NCI-H522 lung
# [42] = tested on: NCI/ADR-RES ovarian
# [43] = tested on: OVCAR-3 ovarian
# [44] = tested on: OVCAR-4 ovarian
# [45] = tested on: OVCAR-8 ovarian
# [46] = tested on: RXF 393 renal
# [47] = tested on: SF-268 CNS
# [48] = tested on: SF-295 CNS
# [49] = tested on: SK-MEL-2 melanoma
# [50] = tested on: SK-MEL-5 melanoma
# [51] = tested on: SN12C renal
# [52] = tested on: SNB-19 CNS
# [53] = tested on: SW-620 colon
# [54] = tested on: T-47D breast
# [55] = tested on: U251 CNS
# [56] = tested on: UACC-62 melanoma
# [57] = tested on: UO-31 renal
smiles,measurement,setting,value
CCCCCCCCCCCCCC1=NCC[N+]1(CCO)Cc1ccccc1 (stereo unspecified),GI50,[1],1.63 µM
same,TGI,[1],3.1 µM
same,GI50,[2],1.77 µM
same,TGI,[2],3.23 µM
same,GI50,[3],1.54 µM
same,TGI,[3],3.14 µM
same,GI50,[4],1.69 µM
same,TGI,[4],3.18 µM
same,GI50,[5],1.57 µM
same,TGI,[5],3.07 µM
same,GI50,[6],1.64 µM
same,TGI,[6],3.23 µM
same,GI50,[7],1.85 µM
same,TGI,[7],4.8 µM
same,GI50,[8],1.68 µM
same,TGI,[8],3.16 µM
same,GI50,[9],1.7 µM
same,TGI,[9],3.22 µM
same,GI50,[10],1.86 µM
same,TGI,[10],3.8 µM
same,GI50,[11],1.45 µM
same,TGI,[11],2.81 µM
same,GI50,[12],1.51 µM
same,TGI,[12],4.2 µM
same,GI50,[13],1.71 µM
same,TGI,[13],3.28 µM
same,GI50,[14],2 µM
same,TGI,[14],3.72 µM
CC1=C(C(=O)OCCO[N+](=O)[O-])C(c2ccccc2C(F)(F)F)C(C(=O)OC(C)C)=C(C)N1 (stereo unspecified),TGI,[15],36.6 µM
same,TGI,[16],60.6 µM
same,TGI,[17],> 100 µM
same,TGI,[1],> 100 µM
same,TGI,[18],26.9 µM
same,TGI,[19],52.3 µM
same,TGI,[20],> 100 µM
same,TGI,[21],28.4 µM
same,TGI,[2],> 100 µM
same,TGI,[22],97.9 µM
same,TGI,[23],> 100 µM
same,TGI,[24],29.1 µM
same,TGI,[25],60.6 µM
same,TGI,[26],> 100 µM
same,TGI,[27],45.8 µM
same,TGI,[28],26.8 µM
same,TGI,[29],36.3 µM
same,TGI,[30],42.8 µM
same,TGI,[31],> 100 µM
same,TGI,[32],21.8 µM
same,TGI,[33],27.3 µM
same,TGI,[34],31.4 µM
same,TGI,[35],58.1 µM
same,TGI,[36],75.1 µM
same,TGI,[3],23.5 µM
same,TGI,[4],53.5 µM
same,TGI,[37],> 100 µM
same,TGI,[38],27.4 µM
same,TGI,[39],85.4 µM
same,TGI,[40],58.6 µM
same,TGI,[41],44.4 µM
same,TGI,[42],57.8 µM
same,TGI,[43],29.2 µM
same,TGI,[44],93.4 µM
same,TGI,[5],37.3 µM
same,TGI,[45],64.7 µM
same,TGI,[6],34.5 µM
same,TGI,[7],> 100 µM
same,TGI,[46],31.4 µM
same,TGI,[47],47.9 µM
same,TGI,[48],26.9 µM
same,TGI,[8],31.6 µM
same,TGI,[49],29.7 µM
same,TGI,[9],33.5 µM
same,TGI,[50],22.1 µM
same,TGI,[10],> 100 µM
same,TGI,[51],36.8 µM
same,TGI,[52],78.3 µM
same,TGI,[12],> 100 µM
same,TGI,[53],> 100 µM
same,TGI,[54],> 100 µM
same,TGI,[13],77.4 µM
same,TGI,[55],29.1 µM
same,TGI,[14],25.4 µM
same,TGI,[56],80.2 µM
same,TGI,[57],33.6 µM
Nc1ccn(C2CSC(CO)O2)c(=O)n1 (stereo unspecified),GI50,[39],> 1000 µM
same,TGI,[39],> 1000 µM
